Laboratory results taken from PubChem BioAssay AID1845198 (Molecular Pharmacology Branch, DTP, NCI, 2023).

System: 425362-245-T-J1 tumor spheroids, viability % test/control
Test: Anticancer human tumor 425362-245-T-J1 patient-derived melanoma cell line growth inhibition
Conditions: spheroids with HUVEC and MSC; for IC50: curve of first compound; for viability, T/C: stronger effect = lower value
Outline: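 Single agents and combinations were tested on spheroids built from tumor cells plus HUVEC and hMSC, at half-log dilutions starting at or near clinical Cmax, else 10 microM; final DMSO 0.25% (v/v).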

[1] = second compound 0.003 µM, first compound 0.0316 µM
[2] = second compound 0.003 µM, first compound 0.1 µM
[3] = second compound 0.003 µM, first compound 0.316 µM
[4] = second compound 0.003 µM, first compound 1 µM
[5] = second compound 0.003 µM, first compound 3.16 µM
[6] = second compound 0.003 µM, first compound 10 µM
[7] = second compound 0.00949 µM, first compound 0.0316 µM
[8] = second compound 0.00949 µM, first compound 0.1 µM
[9] = second compound 0.00949 µM, first compound 0.316 µM
[10] = second compound 0.00949 µM, first compound 1 µM
[11] = second compound 0.00949 µM, first compound 3.16 µM
[12] = second compound 0.00949 µM, first compound 10 µM
[13] = second compound 0.03 µM, first compound 0.0316 µM
[14] = second compound 0.03 µM, first compound 0.1 µM
[15] = second compound 0.03 µM, first compound 0.316 µM
[16] = second compound 0.03 µM, first compound 1 µM
[17] = second compound 0.03 µM, first compound 3.16 µM
[18] = second compound 0.03 µM, first compound 10 µM
[19] = second compound 0.0949 µM, first compound 0.0316 µM
[20] = second compound 0.0949 µM, first compound 0.1 µM
[21] = second compound 0.0949 µM, first compound 0.316 µM
[22] = second compound 0.0949 µM, first compound 1 µM
[23] = second compound 0.0949 µM, first compound 3.16 µM
[24] = second compound 0.0949 µM, first compound 10 µM
[25] = second compound 0.3 µM, first compound 0.0316 µM
[26] = second compound 0.3 µM, first compound 0.1 µM
[27] = second compound 0.3 µM, first compound 0.316 µM
[28] = second compound 0.3 µM, first compound 1 µM
[29] = second compound 0.3 µM, first compound 3.16 µM
[30] = second compound 0.3 µM, first compound 10 µM
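Also: spheroids exposed to agents for 7 days.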

SMILES: CC1COCCN1c1cc(-c2ccnn2C)c2ccnc(-c3ccn[nH]3)c2n1 (stereo not given) + CC[C@@]1(O)C(=O)OCc2c1cc1n(c2=O)Cc2cc3c(CN(C)C)c(O)ccc3nc2-1
- IC50 (second compound 0.003 µM): < 0.0316 µM
- IC50 (second compound 0.00949 µM): < 0.0316 µM
- IC50 (second compound 0.03 µM): < 0.0316 µM
- IC50 (second compound 0.0949 µM): < 0.0316 µM
- IC50 (second compound 0.3 µM): < 0.0316 µM
- viability, T/C [1]: 37.4%
- viability, T/C [2]: 15.3%
- viability, T/C [3]: 6.14%
- viability, T/C [4]: 6.78%
- viability, T/C [5]: 6.36%
- viability, T/C [6]: 6.21%
- viability, T/C [7]: 14.2%
- viability, T/C [8]: 6.19%
- viability, T/C [9]: 4.31%
- viability, T/C [10]: 5.51%
- viability, T/C [11]: 5.57%
- viability, T/C [12]: 5.81%
- viability, T/C [13]: 4.2%
- viability, T/C [14]: 2.9%
- viability, T/C [15]: 3.2%
- viability, T/C [16]: 4.33%
- viability, T/C [17]: 5.76%
- viability, T/C [18]: 6.29%
- viability, T/C [19]: 2.84%
- viability, T/C [20]: 1.97%
- viability, T/C [21]: 2.32%
- viability, T/C [22]: 4.06%
- viability, T/C [23]: 4.81%
- viability, T/C [24]: 4.72%
- viability, T/C [25]: 1.36%
- viability, T/C [26]: 1.31%
- viability, T/C [27]: 1.46%
- viability, T/C [28]: 1.77%
- viability, T/C [29]: 2.51%
- viability, T/C [30]: 3.29%

SMILES: CNCc1ccc(-c2cc(-c3nc(-c4ccc(S(=O)(=O)C(C)C)cc4)cnc3N)on2)cc1 + Cn1nnc2c(C(N)=O)ncn2c1=O
- IC50 (second compound 1 µM): 0.0822 µM
- IC50 (second compound 3.16 µM): 0.142 µM
- IC50 (second compound 10 µM): 0.12 µM
- IC50 (second compound 31.6 µM): 0.109 µM
- IC50 (second compound 100 µM): 0.0637 µM
- viability, T/C (second compound 1 µM, first compound 0.00949 µM): 103%
- viability, T/C (second compound 1 µM, first compound 0.03 µM): 89.2%
- viability, T/C (second compound 1 µM, first compound 0.0949 µM): 45.2%
- viability, T/C (second compound 1 µM, first compound 0.3 µM): 6.29%
- viability, T/C (second compound 1 µM, first compound 0.949 µM): 3.41%
- viability, T/C (second compound 1 µM, first compound 3 µM): 0.13%
- viability, T/C (second compound 3.16 µM, first compound 0.00949 µM): 99.2%
- viability, T/C (second compound 3.16 µM, first compound 0.03 µM): 93.1%
- viability, T/C (second compound 3.16 µM, first compound 0.0949 µM): 72.2%
- viability, T/C (second compound 3.16 µM, first compound 0.3 µM): 9.15%
- viability, T/C (second compound 3.16 µM, first compound 0.949 µM): 3.94%
- viability, T/C (second compound 3.16 µM, first compound 3 µM): 0.13%
- viability, T/C (second compound 10 µM, first compound 0.00949 µM): 111%
- viability, T/C (second compound 10 µM, first compound 0.03 µM): 101%
- viability, T/C (second compound 10 µM, first compound 0.0949 µM): 61%
- viability, T/C (second compound 10 µM, first compound 0.3 µM): 9.28%
- viability, T/C (second compound 10 µM, first compound 0.949 µM): 2.96%
- viability, T/C (second compound 10 µM, first compound 3 µM): 0.12%
- viability, T/C (second compound 31.6 µM, first compound 0.00949 µM): 95.4%
- viability, T/C (second compound 31.6 µM, first compound 0.03 µM): 105%
- viability, T/C (second compound 31.6 µM, first compound 0.0949 µM): 56.2%
- viability, T/C (second compound 31.6 µM, first compound 0.3 µM): 7.24%
- viability, T/C (second compound 31.6 µM, first compound 0.949 µM): 2.97%
- viability, T/C (second compound 31.6 µM, first compound 3 µM): 0.11%
- viability, T/C (second compound 100 µM, first compound 0.00949 µM): 92.7%
- viability, T/C (second compound 100 µM, first compound 0.03 µM): 81.9%
- viability, T/C (second compound 100 µM, first compound 0.0949 µM): 33.1%
- viability, T/C (second compound 100 µM, first compound 0.3 µM): 4.28%
- viability, T/C (second compound 100 µM, first compound 0.949 µM): 4.13%
- viability, T/C (second compound 100 µM, first compound 3 µM): 0.16%

SMILES: [2H]c1nc(C)nc([2H])c1-c1cc(NC[C@@H](C)c2cccc3c(C(=O)NC)ccnc23)ncn1 + CC[C@@]1(O)C(=O)OCc2c1cc1n(c2=O)Cc2cc3c(CN(C)C)c(O)ccc3nc2-1
- IC50 (second compound 0.003 µM): 3.45 µM
- IC50 (second compound 0.00949 µM): 3.59 µM
- IC50 (second compound 0.03 µM): < 0.0316 µM
- IC50 (second compound 0.0949 µM): < 0.0316 µM
- IC50 (second compound 0.3 µM): < 0.0316 µM
- viability, T/C [1]: 93.9%
- viability, T/C [2]: 83.5%
- viability, T/C [3]: 76.7%
- viability, T/C [4]: 74.5%
- viability, T/C [5]: 47.7%
- viability, T/C [6]: 31.4%
- viability, T/C [7]: 76.2%
- viability, T/C [8]: 60.4%
- viability, T/C [9]: 72.9%
- viability, T/C [10]: 63.8%
- viability, T/C [11]: 53%
- viability, T/C [12]: 25.5%
- viability, T/C [13]: 39.5%
- viability, T/C [14]: 32.2%
- viability, T/C [15]: 36.2%
- viability, T/C [16]: 28.3%
- viability, T/C [17]: 20.5%
- viability, T/C [18]: 9.7%
- viability, T/C [19]: 6.85%
- viability, T/C [20]: 5.79%
- viability, T/C [21]: 4.9%
- viability, T/C [22]: 6.11%
- viability, T/C [23]: 2.84%
- viability, T/C [24]: 3.55%
- viability, T/C [25]: 1.6%
- viability, T/C [26]: 1.7%
- viability, T/C [27]: 1.43%
- viability, T/C [28]: 1.44%
- viability, T/C [29]: 1.47%
- viability, T/C [30]: 1.38%
